In patent publication US10124085B2, “Antimicrobial and antiviral hygienic products” (priority 2014, dated 2018):

What was measured:
[1] = tested on: Escherichia coli; test: Modified disc diffusion method; assay type: cell-based; set-up: key: +sign indicates that the boron compounds had antimicrobial activity.; −sign indicates that there is no antimicrobial activity; conditions: disc immersed in pulverized boron compound; Ofloxacin 10 μg/disc; 36±1° C., 24 hours
[2] = tested on: Staphylococcus aureus; test: Modified disc diffusion method; assay type: cell-based; set-up: key: +sign indicates that the boron compounds had antimicrobial activity.; −sign indicates that there is no antimicrobial activity; conditions: disc immersed in pulverized boron compound; Ofloxacin 10 μg/disc; 36±1° C., 24 hours
[3] = tested on: Pseudomonas aeruginosa; test: Modified disc diffusion method; assay type: cell-based; set-up: key: +sign indicates that the boron compounds had antimicrobial activity.; −sign indicates that there is no antimicrobial activity; conditions: disc immersed in pulverized boron compound; Ofloxacin 10 μg/disc; 36±1° C., 24 hours
[4] = tested on: Candida albicans; test: Modified disc diffusion method; assay type: cell-based; set-up: key: +sign indicates that the boron compounds had antimicrobial activity.; −sign indicates that there is no antimicrobial activity; conditions: disc immersed in pulverized boron compound; Nystatin 30 μg/disc; 36±1° C., 48 hours
[5] = tested on: Candida glabrata; test: Modified disc diffusion method; assay type: cell-based; set-up: key: +sign indicates that the boron compounds had antimicrobial activity.; −sign indicates that there is no antimicrobial activity; conditions: disc immersed in pulverized boron compound; Nystatin 30 μg/disc; 36±1° C., 48 hours
[6] = tested on: Aspergillus niger; test: Modified disc diffusion method; assay type: cell-based; set-up: key: +sign indicates that the boron compounds had antimicrobial activity.; −sign indicates that there is no antimicrobial activity; conditions: disc immersed in pulverized boron compound; Nystatin 30 μg/disc; 25±1° C., 72 hours
[7] = tested on: Fusarium oxysporum; test: Modified disc diffusion method; assay type: cell-based; set-up: key: +sign indicates that the boron compounds had antimicrobial activity.; −sign indicates that there is no antimicrobial activity; conditions: disc immersed in pulverized boron compound; Nystatin 30 μg/disc; 25±1° C., 72 hours
[8] = tested on: Botrytis cinerea; test: Modified disc diffusion method; assay type: cell-based; set-up: key: +sign indicates that the boron compounds had antimicrobial activity.; −sign indicates that there is no antimicrobial activity; conditions: disc immersed in pulverized boron compound; Nystatin 30 μg/disc; 25±1° C., 72 hours
[9] = tested on: Penicillium vinaceum; test: Modified disc diffusion method; assay type: cell-based; set-up: key: +sign indicates that the boron compounds had antimicrobial activity.; −sign indicates that there is no antimicrobial activity; conditions: disc immersed in pulverized boron compound; Nystatin 30 μg/disc; 25±1° C., 72 hours
[10] = tested on: Penicillium expansum; test: Modified disc diffusion method; assay type: cell-based; set-up: key: +sign indicates that the boron compounds had antimicrobial activity.; −sign indicates that there is no antimicrobial activity; conditions: disc immersed in pulverized boron compound; Nystatin 30 μg/disc; 25±1° C., 72 hours
[11] = tested on: all of the tested microorganisms; assay type: cell-based
[12] = tested on: Human adenovirus type 5 Adenoid 75 strain; test: Antiviral activity test in HEp-2 cell culture (TCID50, Spearman-Karber); assay type: cell-based; conditions: for Reduction ratio in virus titration / Virus titration with Chlorhexidine gluconate: 0.1%, 20° C.; for Virus titration with Chlorhexidine gluconate: reference virus 5.5
[13] = tested on: Poliovirus type 1 Chat strain; assay type: cell-based
[14] = tested on: Human Herpes simplex virus type 1 (HSV-1) MacIntyre strain; test: Antiviral activity test in Vero cell culture (TCID50, Spearman-Karber); assay type: cell-based; conditions: for Reduction ratio in virus titration / Virus titration with Chlorhexidine gluconate: 0.1%, 20° C.; for Virus titration with Chlorhexidine gluconate: reference virus 7.3
[15] = tested on: HEp-2 cells (ATCC CCL-23)
[16] = tested on: Herpesvirus hominis; conditions: 0.02% chlorhexidine gluconate; 90-minute exposure at room temperature; cited from earlier work
[17] = tested on: poliovirus; conditions: 0.02% chlorhexidine gluconate; 90-minute exposure at room temperature; cited from earlier work
[18] = tested on: adenovirus; conditions: 0.02% chlorhexidine gluconate; 90-minute exposure at room temperature; cited from earlier work
[19] = tested on: enteric bacteria; conditions: cited from earlier work
[20] = tested on: various bacterial strains; conditions: 10-minute exposure; 0.02% chlorhexidine solution; cited from earlier work
[21] = tested on: Penicillium expansium; conditions: cited from earlier work
[22] = tested on: Botrytis cinerea; conditions: 1% concentration; cited from earlier work
[23] = tested on: streptococci; conditions: cited from earlier work
[24] = tested on: micrococci; conditions: cited from earlier work
[25] = tested on: Propionibacterium acnes; conditions: cited from earlier work
[26] = room temperature (20° C.), clean and polluted media, 1 and 60 minute application periods
[27] = used directly without being diluted, room temperature (20° C.), 1 and 60 minute application periods

## O.O.O.O.O.[Na+].[Na+].[O-]B1OB2OB([O-])OB(O1)O2 [BP, Borax pentahydrate]
[1]
  Antimicrobial activity (inhibition zone): +
[2]
  Antimicrobial activity (inhibition zone): +
[3]
  Antimicrobial activity (inhibition zone): +
[4]
  Antimicrobial activity (inhibition zone): +
[5]
  Antimicrobial activity (inhibition zone): +
[6]
  Antimicrobial activity (inhibition zone): +
[7]
  Antimicrobial activity (inhibition zone): +
[8]
  Antimicrobial activity (inhibition zone): +
[9]
  Antimicrobial activity (inhibition zone): +
[10]
  Antimicrobial activity (inhibition zone): +
[11]
  concentration giving the most effective antimicrobial (antifungal, anticandidal and antibacterial) results: 5.5 mg/cm^2

## N=C(NCCCCCCNC(=N)NC(=N)Nc1ccc(Cl)cc1)NC(=N)Nc1ccc(Cl)cc1.O=C(O)[C@H](O)[C@@H](O)[C@H](O)[C@H](O)CO.O=C(O)[C@H](O)[C@@H](O)[C@H](O)[C@H](O)CO [Chlorhexidine gluconate]
[12]; 1 minute, Clean medium
  Reduction ratio in virus titration: 4.0 Logarithmic TCID50
  Virus titration with Chlorhexidine gluconate: 1.5 Logarithmic TCID50
[12]; 1 minute, Polluted medium
  Reduction ratio in virus titration: 4.0 Logarithmic TCID50
  Virus titration with Chlorhexidine gluconate: 1.5 Logarithmic TCID50
[12]; 60 minutes, Clean medium
  Reduction ratio in virus titration: 4.5 Logarithmic TCID50
  Virus titration with Chlorhexidine gluconate: 1.0 Logarithmic TCID50
[12]; 60 minutes, Polluted medium
  Reduction ratio in virus titration: 4.0 Logarithmic TCID50
  Virus titration with Chlorhexidine gluconate: 1.5 Logarithmic TCID50
[12]; [26]
  reduction in virus titration: at least 4 log
[12]; [27]
  active against virus: 99.9%
[13]
  reduction in virus titration: at least 4 log
[13]; 0.1%, 20° C.
  Reduction ratio in virus titration: 4.2 Logarithmic TCID50
  Virus titration with Chlorhexidine gluconate: 1.3 Logarithmic TCID50
[14]; 1 minute, Clean medium
  Reduction ratio in virus titration: 4 Logarithmic TCID50
  Virus titration with Chlorhexidine gluconate: 2.3 Logarithmic TCID50
[14]; 1 minute, Polluted medium
  Reduction ratio in virus titration: 4 Logarithmic TCID50
  Virus titration with Chlorhexidine gluconate: 2.3 Logarithmic TCID50
[14]; 60 minutes, Clean medium
  Reduction ratio in virus titration: 4 Logarithmic TCID50
  Virus titration with Chlorhexidine gluconate: 2.3 Logarithmic TCID50
[14]; 60 minutes, Polluted medium
  Reduction ratio in virus titration: 4 Logarithmic TCID50
  Virus titration with Chlorhexidine gluconate: 2.3 Logarithmic TCID50
[14]; [26]
  reduction in virus titration: at least 4 log
[14]; [27]
  active against virus: 99.9%
[15]
  cytopathic effect on the cells in the cell culture: showed cytopathic effect
  lowest ratio which does not show cytopathic effect: 0.1%
[16]
  reduction of virus titration: more than 99%
[17]
  activity against virus: ineffective
[18]
  activity against virus: ineffective

## C[C@@H]1[C@H](O)[C@@H](C)/C=C/C=C/CC/C=C/C=C/C=C/C=C/C(O[C@H]2O[C@H](C)[C@@H](O)[C@H](N)[C@@H]2O)CC2O[C@](O)(CC(O)C(O)CCC(O)CC(O)CC(O)CC(=O)O[C@H]1C)CC(O)C2C(=O)O (stereo partly drawn) [Nystatin]
[4]
  Antimicrobial activity (inhibition zone): +
[5]
  Antimicrobial activity (inhibition zone): +
[6]
  Antimicrobial activity (inhibition zone): +
[7]
  Antimicrobial activity (inhibition zone): +
[8]
  Antimicrobial activity (inhibition zone): +
[9]
  Antimicrobial activity (inhibition zone): +
[10]
  Antimicrobial activity (inhibition zone): +

## CC1COc2c(N3CCN(C)CC3)c(F)cc3c(=O)c(C(=O)O)cn1c23 (stereo not drawn) [Ofloxacin]
[1]
  Antimicrobial activity (inhibition zone): +
[2]
  Antimicrobial activity (inhibition zone): +
[3]
  Antimicrobial activity (inhibition zone): +

## O.O.O.O.[Na+].[O-]B1OO1 [SPT, Sodium perborate tetrahydrate]
[1]
  Antimicrobial activity (inhibition zone): +
[2]
  Antimicrobial activity (inhibition zone): +
[3]
  Antimicrobial activity (inhibition zone): +
[4]
  Antimicrobial activity (inhibition zone): +
[5]
  Antimicrobial activity (inhibition zone): +
[6]
  Antimicrobial activity (inhibition zone): +
[7]
  Antimicrobial activity (inhibition zone): +
[8]
  Antimicrobial activity (inhibition zone): +
[9]
  Antimicrobial activity (inhibition zone): +
[10]
  Antimicrobial activity (inhibition zone): +
[11]
  concentration giving the most effective antimicrobial (antifungal, anticandidal and antibacterial) results: 5.5 mg/cm^2

## OB(O)O [boric acid]
[19]
  antibacterial activity: has antibacterial activity

## [H]/N=C(\N/C(=N/[H])NCCCCCCNC(=N)NC(=N)Nc1ccc(Cl)cc1)Nc1ccc(Cl)cc1 [chlorhexidine]
[20]
  inhibition of microorganisms: 99.99%

## [K+].[K+].[O-]B1OB2OB([O-])OB(O1)O2 [potassium tetraborate]
[21]
  minimum concentration preventing micelle growth: 0.1%
[22]
  control of mold causing disease on the grapes: could control

## Oc1cc(Cl)ccc1Oc1ccc(Cl)cc1Cl [triclosan]
[23]
  effectiveness relative to hexachlorophene: less effective
[24]
  effectiveness relative to hexachlorophene: less effective
[25]
  effectiveness relative to hexachlorophene: less effective

## Sodium Borate [SB]
[1]
  Antimicrobial activity (inhibition zone): +
[2]
  Antimicrobial activity (inhibition zone): +
[3]
  Antimicrobial activity (inhibition zone): +
[4]
  Antimicrobial activity (inhibition zone): +
[5]
  Antimicrobial activity (inhibition zone): +
[6]
  Antimicrobial activity (inhibition zone): +
[7]
  Antimicrobial activity (inhibition zone): +
[8]
  Antimicrobial activity (inhibition zone): +
[9]
  Antimicrobial activity (inhibition zone): +
[10]
  Antimicrobial activity (inhibition zone): +
[11]
  concentration giving the most effective antimicrobial (antifungal, anticandidal and antibacterial) results: 4 mg/cm^2
